86 compounds from a melting point compilation (Tetko et al.; mined from patent text by program, amines drawn as free bases though some values may be those of a salt) can be followed below.

The structures appear in SMILES notation.

Consider `O=C(O)CCC(=O)c1ccc(OC2CCCCC2)cc1`, for which the melting point (as a rule, the temperature of the solid-liquid transition) was in the range of 190 to 192 °C.
The same measure for `CC1(C)CC(N(CCO)S(C)(=O)=O)c2cc(OCc3ccccc3)ccc2O1` (stereo unspecified): 78 to 80 °C; for `O=C(NC1CCCCC1)N1CCC(c2cn(C(=O)NC3CCCCC3)cn2)CC1`: 166 °C.
The same measure for `CCc1ccc(-c2nc3cccnc3n2-c2ccc(CCNC[C@H](O)COc3ccc(O)cc3)cc2)cc1`: 75 to 78 °C; for `CC(=O)N(C)c1c(C(=O)C2CCCCC2)[nH]c2cc(Cl)ccc12`: 162 to 163 °C; for `COCCc1nc2c(N)nc3ccccc3c2n1CCCCNC(=O)c1c[nH]c2ccccc12`: 226 to 227 °C.
The compound `COc1cc2c3ccc(OC)c(OC)c3n(C(=O)CCc3ccccc3)c2cc1OC` came in with a melting point of 106 to 108 °C.
With `CCc1nn(CCNC(=O)OC(C)(C)C)c(CN)c1Oc1cc(Cl)cc(Cl)c1` the figure was 112 to 114 °C; with `CCOC(=O)c1sc2c(ccc(=O)n2-c2ccccc2)c1Br`, 202 to 206 °C.
With `CCOC(=O)c1ncc2[nH]c3cccc(Cc4ccccc4)c3c2c1COC` the figure was 160 to 168 °C; with `CC(C)C1NCC(=O)N1CC(=O)NCC(N)=O` (stereo unspecified), 65 to 70 °C.
With `CSc1ccc(-c2nc(SC)c(C#N)c(=O)n2-c2ccc(Br)cc2)cc1` the figure was 213 to 215 °C; with `CN1CC(CCO)N2c3ccccc3Oc3ccccc3C2C1` (stereo unspecified), 138 to 139 °C.
On to `COc1cc(C=CC(=O)Nc2cnc3c(C)c(Cl)ccc3c2-c2ccccc2C)cc(OC)c1OC(C)=O`, for which the melting point was 213 to 214 °C.
With `O=C1c2ccccc2-c2c1c1ccccc1c(=O)n2CCCNS(=O)(=O)c1ccccc1` the figure was 216 to 218 °C.
With `CCCCCCCS(=O)(=O)c1ccc(N)cc1` the figure was 91 to 92 °C.
With `CC(C)[C@H](NS(=O)(=O)c1ccc2c(Cl)cnc(Cl)c2c1)C(=O)OC(C)(C)C` the figure was 127 to 129 °C; with `C=CC(=O)Cc1ccc(-c2ccc(CC(=O)C=C)cc2)cc1`, 61 to 62 °C.
Turning to `CCCCCCCCC(CCC(=O)O)C(C)=O` (stereo unspecified), the melting point fell in the range of 36 to 38 °C.
The same measure for `CC[C@@H](CN1CCCc2cc(Br)ccc21)NS(=O)(=O)c1c(C)cc(C)cc1C`: 135 °C.
With `O=c1c(Br)c(SCc2ccccc2)ccn1Cc1ccccc1` the figure was 181 to 182 °C.
With `Oc1ccnc2cc(Cl)c(F)cc12` the figure was over 300 °C; with `CCS(=O)(=O)Nc1c(C)c(C)c2c(c1C)C(c1ccc(C(C)C)cc1)CO2` (stereo unspecified), 132 to 133 °C.
Take `CCC(C)(C)N=C(NC#N)Nc1cc(Cl)cc(Cl)c1`: the melting point is 151 to 153 °C.
The same measure for `OCc1cc(CCCCCCCOc2ccc(C3=NCCO3)cc2)on1`: 122 to 124 °C.
The same measure for `CCN(C(=O)c1cnc(N2CC(C)(C)NC2=O)nc1N)c1cccc(C(F)(F)F)c1`: 186 to 187 °C.
With `CC(C)c1ccccc1SC1=C(O)CC(CCc2ccccc2)(c2ccccc2)OC1=O` (stereo unspecified) the figure was 66 to 67 °C; with `CS(=O)(=O)CC(=O)N[C@H]1CC[C@H](CCN2CCN(c3nccc4c3OCC4)CC2)CC1`, 187 °C.
In the case of `CNc1ccc(OCCN2CCC(Cc3ccc(C)cc3)CC2)cc1`, the melting point fell in the range of 136 to 137 °C.
The same measure for `Cc1ccc2nc(-c3ccc(Cl)cc3)c(CN3CCCC3=O)n2c1`: 186 to 188 °C.
With `Cc1cccc(NC(=O)N(C)Cc2cccc3c2CN(C2CCC(=O)NC2=O)C3=O)c1` (stereo unspecified) the figure was 208 to 210 °C; with `CC(C)[C@H](OCc1c(F)cccc1F)[C@H]1[C@H]([N+](=O)[O-])[C@H](c2ccccc2)N[C@@H]1C(=O)NCC(=O)O`, 80 to 81 °C.
In turn, `Cc1cc(Cl)ccc1N=CN(C)SN(C)C=Nc1ccc(Cl)cc1C` displayed a melting point of 124 to 126 °C.
The same measure for `CCOC(=O)CCCCCBr`: 34.5 to 36 °C; for `COc1cccc2cnc(C)nc12`: 131 to 132 °C; for `COc1ccc2c(c1)CCC1C2CCC2(C)C1CCC2N(C)CCCO` (stereo unspecified): 122 to 124 °C.
With `Cc1cccc(NC(=O)NCC(=O)N(CC(=O)OC(C)(C)C)c2ccccc2C)c1` the figure was 133 °C.
With `CSc1c(C(Cc2ccc(F)cc2)C(=O)O)ccc2c3ccccc3n(Cc3ccc(F)cc3)c12` (stereo unspecified) the figure was 90 to 94 °C.
The compound `CN(C)C=CC(=O)c1cccc(NC=O)c1` gave a melting point of 165 to 167 °C.
With `O=Cc1ccc2c(c1)c1ccccc1n2CCCCCCCCCCn1c2ccccc2c2cc(C=O)ccc21` the figure was 122 °C; with `NCCNCCN1CCC(c2cn(-c3ccc(F)cc3)c3ccc(Cl)cc23)CC1`, 150 °C.
The same measure for `N#Cc1cc(Br)c(OC(=O)OCOC(=O)c2ccc(Oc3ccc(C(F)(F)F)cc3Cl)cc2[N+](=O)[O-])c(Br)c1`: 122 to 123 °C.
The same measure for `COC(=O)c1cc(C)cc(NC(=O)c2nnn[nH]2)c1O`: 238 to 240 °C.
With `CC(O)c1cc2c(o1)C(=O)c1cccc(O)c1C2=O` (stereo unspecified), the melting point is 148 to 149 °C.
With `CN=C(NC#N)C1=CC2(CCCCC2)Oc2ccc([N+](=O)[O-])cc21` the figure was 244 to 245 °C; with `CCn1ncc2nc(C(=O)OCC#N)c(C)nc21`, 83 to 84 °C.
With `N#Cc1cc(=O)n(CCc2ccccc2)s1` the figure was 228 °C; with `CC(C)C[C@@H](C=O)NC(=O)[C@H](Cc1c[nH]cn1)NC(=O)[C@H](Cc1c[nH]c2ccccc12)NC(=O)OCc1ccccc1`, 109 to 110 °C; with `COc1ccc(C(C(=O)OC(C)(C)C)N(C(=O)CNC(=O)Nc2cccc(C)c2)c2ccccc2)cc1` (racemic), 206 °C.
The same measure for `COCCNCCc1ccc(Nc2ncc3c(n2)-c2ccccc2C(c2ccccc2C(F)(F)F)C3)cc1` (stereo unspecified): 61 to 62 °C; for `O=c1[nH]c(NCCCN(Cc2ccccc2)c2ccccn2)ncc1Cc1ccc(Cl)cc1`: 80 to 86 °C; for `O=C(Nc1ccc(C(=O)N2Cc3ccccc3Cc3ccccc32)cc1)c1ccc(F)cc1F`: 215 to 217 °C.
The compound `CS(=O)(=O)CCc1nc2nc[nH]c2c2nc(-c3ccc(-c4ccccc4)cc3)nn12` gave a melting point of 280 °C.
The same measure for `COc1ccccc1N1CCN(C(=O)CCCN2CC=C(c3c[nH]c4cc(Cl)ccc34)CC2)CC1`: 93 to 95 °C; for `CCOC(=O)c1cnc2c([N+](=O)[O-])c(Cl)c(F)cc2c1O`: 226 to 228 °C; for `O=C([C@@H](Cc1ccc(Cl)cc1)NC1CCCCC1)N1CCC(Cn2cncn2)(C2CCCCC2)CC1`: 60 °C.
With `CCOC(=O)c1cc(O)c(C(=O)c2ccc(C)cc2)c([N+](=O)[O-])c1` the figure was 145 to 147 °C; with `CNC(=S)NN1Cc2c(C)ccc(C)c2C1`, 177 to 178 °C.
The same measure for `O=C(Nc1ccccc1O)c1ccc(CSc2ccc(O)cc2)cc1`: 152 to 156 °C; for `O=Cc1cnc(Cl)c(Cl)c1`: 65 °C; for `Cc1cc(=O)c(C(=O)Nc2ccccc2)c(C)o1`: 148 to 149 °C.
Consider `Cc1ccsc1C(=O)NCCO[N+](=O)[O-]`, for which the melting point fell in the range of 74 to 76 °C.
For `C=Cc1ccc(OC)c(OC)c1`, the melting point fell in the range of 110 to 114 °C.
With `Cc1cc(NCCO)n2ncc([N+](=O)[O-])c2n1` the figure was 231 °C; with `CC[C@@]12C/C(=C\c3ccccc3)C(=O)C[C@H]1CCc1cc(O)ccc12`, 265 to 266 °C.
The same measure for `c1ccc(N2CCOCC2)c(N=C2CCCCN2)c1`: 89 to 90 °C.
The compound `CC1COC(=O)N1c1cc(-c2ccnc(Nc3cccc(Cl)c3)n2)ccn1` (stereo unspecified) showed a melting point of 177 to 178 °C.
With `COC1=C(OC)C(=O)C2=C(CC(CCCCCCCC(=O)O)(c3ccccc3)C2)C1=O` the figure was 63 to 66 °C; with `O=C(Cn1cnc2cc(-c3ccc(Cl)cc3)sc2c1=O)c1ccc2c(c1)CCN(C(=O)C(F)(F)F)CC2`, 285 to 287 °C; with `CC(C)c1ccc(C(=O)NNC(=O)c2ccc(C(=O)O)cc2)cc1`, 235 to 237 °C.
The same measure for `O=C(Nc1ccc(Br)cc1)c1cc2ccccc2o1`: 178 to 180 °C; for `CC(=O)NCC1(C)CC(O)c2ccccc2O1` (stereo unspecified): 168 to 170 °C.
`CCCOc1ccc(S(=O)(=O)CC)cc1-c1nc2c(CC)nn(C[C@@H]3CCCN3C(=O)OC(C)(C)C)c2c(=O)[nH]1` registered a melting point of 170 to 172 °C.
With `Cc1c(C)c2c(c(C)c1NCc1cccs1)C(c1ccc(C(C)C)cc1)C(C)(C)O2` (stereo unspecified) the figure was 101 to 103 °C; with `Cc1oc(-c2ccccc2)nc1CCOc1ccc(N)cn1`, 107 to 108 °C.
The same measure for `CCCCCCCCCCCC(=O)N1CCc2nc3ccccc3c(C)c2CC1`: 100 °C; for `COc1ccccc1COc1ccc(S(=O)(=O)c2ccc(C)nc2Nc2cc(OC)c(OC)cc2C)cc1`: 62 to 66 °C; for `COC(=O)c1ncn2c1CN=C(c1ccccc1Cl)c1cc(Cl)ccc1-2`: 206 to 208 °C.
As to `Cc1cn(Cc2cc(C)c3c(c2)-c2[nH]nc(-c4ccsc4)c2C3)cn1`, the melting point was 240 to 242 °C.
The same measure for `COC(=O)c1cc(C)nc(C)c1`: 45 to 47 °C.
With `CCOC(=O)c1c(N2CCN(C(=O)c3cccs3)CC2)c2cc(F)cnc2n(CC(=O)c2ccccc2)c1=O` the figure was 262 °C; with `COc1cccc(-c2ccc3c(c2)C(C)(C)OC(=S)N3)c1`, 142 to 143 °C.
The same measure for `COc1ccccc1NC(=O)Nc1nc(N2CCN(c3ccccc3OC(C)C)CC2)nc(N(CCC(=O)O)Cc2ccc(Cl)c(Cl)c2)n1`: 115 to 118 °C.
`COC(=O)c1cc(-c2ccc(C)cc2)n(Cc2ccc(Cl)cc2Cl)n1` registered a melting point of 105 °C.
With `COc1cc(COc2nn(-c3ccccc3)cc2/C=C/C(=O)O)ccc1OCc1nc(-c2ccco2)oc1C` the figure was 204 to 205 °C; with `Cc1cccc(C)c1N(CC(C)N1C(=O)c2ccccc2C1=O)S(C)(=O)=O` (stereo unspecified), 124 to 127 °C.
